Experiments:
Mus musculus = test: Antithrombotic activity in collagen-epinephrine induced pulmonary thromboembolism mouse model assessed as protection rate at 200 mg/kg, ig twice a day for 7 days followed by administered collagen-epinephrine relative to control; assay type: functional; settings: time 7 day
[1] = Inhibition of thrombin-induced platelet aggregation in mouse platelet isolated from C57BL/6J mouse treated at 200 mg/kg, ig twice a day for 7 days by lumi-aggregometer; assay type: functional; settings: po, 168 h, time 7 day
[2] = Half life in Sprague-Dawley rat at 200 mg/kg, po measured by HPLC-MS/MS analysis; assay type: ADME, organism-based; settings: in vivo
[3] = Cmax in Sprague-Dawley rat at 200 mg/kg, po compound dissolved in DMSO measured after 2 hr by HPLC-MS/MS analysis; assay type: ADME, organism-based; set-up: route oral, time 2 hrs, dose 200 mg/kg; settings: in vivo
[4] = AUC (0 to infinity) in Sprague-Dawley rat at 200 mg/kg, po measured by HPLC-MS/MS analysis; assay type: ADME, organism-based; set-up: time infinity, route oral, dose 200 mg/kg; settings: in vivo
[5] = Apparent clearance during terminal phase in Sprague-Dawley rat at 200 mg/kg, po measured by HPLC-MS/MS analysis; assay type: ADME, organism-based; settings: in vivo

Row | SMILES | Activity (Mus musculus) [%] | inhibition in vivo at 200 mg/kg [1] [%] | half-life [2] [min] | Cmax [3] [ng/mL] | AUC(0-inf) [4] [ng·h/mL] | CLz/F [5] [L/h/kg]
1 | CN(C)C(=N)NC(=N)NC(=O)/C=C/C(=O)O | 20 | 13.5 | – | – | – | –
2 | CN(C)C(=N)NC(=N)NS(=O)(=O)C(Cl)(Cl)Cl | 40 | 34.9 | – | – | – | –
3 | CN(C)C(=N)NC(=N)N [METFORMIN] | 30 | 18.5 | 194 | 18000 | 78700 | 2.54
4 | CN(C)C(=N)NC(=N)NS(C)(=O)=O | 50 | 47.5 | – | – | – | –
5 | CN(C)C(=N)NC(=N)/N=C/c1ccc(O)cc1 | 10 | 11.5 | – | – | – | –
6 | CC(=O)NC(=N)NC(=N)N(C)C | 10 | 15.4 | – | – | – | –
7 | CN(C)C(=N)NC(=N)/N=C/c1cc(O)c(O)c(O)c1 | 0 | 7.1 | – | – | – | –
8 | CN(C)C(=N)NC(=N)NS(=O)(=O)CC(F)(F)F | 30 | 29.3 | – | – | – | –
9 | CN(C)C(=N)NC(=N)NS(=O)(=O)C(F)F | 30 | 35.5 | – | – | – | –
10 | Cc1ccc(S(=O)(=O)NC(=N)NC(=N)N(C)C)cc1 | 30 | 16.5 | – | – | – | –
11 | CC(C)S(=O)(=O)NC(=N)NC(=N)N(C)C | 40 | 28.2 | – | – | – | –
12 | CN(C)C(=N)NC(=N)NC(=O)c1ccccc1 | 20 | 14.2 | – | – | – | –
13 | CN(C)C(=N)NC(=N)NC(=O)C(F)(F)F | 30 | 16.5 | – | – | – | –
14 | CN(C)C(=N)NC(=N)NCc1ccccc1 | 20 | 12.1 | – | – | – | –
15 | CN(C)C(=N)NC(=N)NC(=O)CCC(=O)O | 40 | 40.4 | – | – | – | –
16 | CN(C)C(=N)NC(=N)NS(=O)(=O)CCC(F)(F)F | 20 | 24.4 | – | – | – | –
17 | CN(C)C(=N)NC(=N)NS(=O)(=O)C(F)(F)C(F)(F)C(F)(F)C(F)(F)F | 20 | 9.2 | – | – | – | –
18 | CN(C)C(=N)NC(=N)/N=C/c1ccc(C#N)cc1 | 10 | 9.5 | – | – | – | –
19 | CN(C)C(=N)NC(=N)NC(=O)C1CCCCC1 | 20 | 24.1 | – | – | – | –
20 | CCS(=O)(=O)NC(=N)NC(=N)N(C)C | 20 | 34.3 | – | – | – | –
21 | Cc1ccc(C(=O)NC(=N)NC(=N)N(C)C)cc1 | 20 | 18.3 | – | – | – | –
22 | CN(C)C(=N)NC(=N)NS(=O)(=O)C1CCCCC1 | 30 | 19.5 | – | – | – | –
23 | CN(C)C(=N)NC(=N)/N=C/c1ccc(N(C)C)cc1 | 10 | 6.2 | – | – | – | –
24 | CC(=O)Oc1ccccc1C(=O)O [ASPIRIN] | 50 | 38.8 | – | – | – | –

Source: ChEMBL document CHEMBL4765340, “Novel potent antiplatelet thrombotic agent derived from biguanide for ischemic stroke” (Eur J Med Chem, 2020)
